From patent publication US10391166B2, “Short oligonucleotides as vaccine adjuvants and therapeutic agents” (priority 2013, dated 2019)
Entries after “also recorded” stand apart in the source; their conditions may differ.

Columns and labels:
[1] = test system: HFF (human foreskin fibroblasts); experiment: MTT cytotoxicity assay, HFF cells; type: cell-based; conditions: 24-hour incubation
Source text: (§1) SDS was used as a positive cytotoxic control.

M. tuberculosis = test system: M. tuberculosis; design: species or system C57Bl/6 mice; conditions: mouse, in vivo
[2] = test system: IRF3-luciferase reporter gene; experiment: IRF3-luciferase reporter induction in HLE A549 cells (primary assay for NOD2 activation); type: cell-based, human; conditions: 12 h incubation
Method: The evaluation of SMNH compounds for NOD2 activation was conducted by primary, secondary, and tertiary assays. In the primary assays, SMNH compounds were tested for the induction of IRF3 expression in HLE A549 cells, which are known to endogenously express NOD2. […] SB 44, a mixture of two isomers Rp and Sp, is a prodrug of SB 40. SB 1B—the Rp isomer of SB 44 and is shown as SB 44-1 in the FIGS. 1-2.
IRF3-luciferase transfected cells were incubated with either DMSO only (UT) or SMNH compounds (μM). Following 12 h incubation, luciferase activity was measured using Dual-Luciferase Reporter Assay System (Promega) according to the manufacturer's protocol. Transfection efficiency was normalized by measuring the expression of renilla Luciferase. Luciferase units (i.e., fold induction) were measured by standard methodology (mean±standard deviation; 3 independent experiments). The results are depicted in FIG. 1.

Vero = experiment: MTT cytotoxicity assay, Vero cells; type: cell-based; conditions: 24-hour incubation
Source text: as §1

NF-kB = experiment: NF-kB-luciferase assay in HEK 293 cells transfected with RIGI and Nod2; type: cell-based; conditions: 10 μM; 12 h incubation
Method: HEK 293 cells were transfected with RIGI, pcDNA, Nod2 and NF-kB-luciferase. The cells were then incubated with SB 44 (10 μM). Following 12 h incubation, Luciferase activity was measured as described previously. The Luciferase assay results are presented as mean±S.D. from three independent experiments.

[3] = test system: rat bone marrow erythrocytes; experiment: Bone-marrow micronucleus evaluation in rats; type: in vivo, Sprague-Dawley rats; conditions: 14-day oral dosing
Method: (§2) Necropsies were performed on Day 15 for rats in the main study group and on Day 28 for rats in the recovery group.

[4] = Dose range-finding oral toxicity study in rats (single dose and 7 days); type: in vivo, Sprague-Dawley rats
Source text: The objective of this study was to determine potential toxic effects, to identify potential target organs of toxicity, and to determine a maximum tolerated dose (MTD) and a no observable adverse effect level (NOAEL) for the endpoints examined following daily oral gavage of SB 44 for 7 consecutive days to adult male and female Sprague-Dawley rats. Information from this study was used to design subsequent toxicity studies and determine the suitability of the proposed human dose. This study consisted of Phase A and Phase B. Phase A was a dose range-finding study. Two rats (1 male and 1 female) were included in the study. Animals were given a single dose of SB 44 at 1000 mg/kg by oral gavage (po) and observed for 3 days. […] No necropsy was performed.
In Phase B, rats (3/sex/group) were given a daily oral dose of SB 44 at 50, 250, and 1000 mg/kg/day for 7 consecutive days. A control group (3/sex) was also given a daily oral dose of the vehicle, 50% PEG 400 plus 50% HPMCT (0.1% hydroxypropyl methylcellulose and 0.2% Tween 80 in sterile water), at an equivalent volume for 7 days. Animals were sacrificed on Day 8. The following parameters were evaluated: mortality/morbidity, clinical observations, body weights, clinical pathology (hematology and serum chemistry), organ weights, and, at necropsy, macroscopic observations and microscopic histopathology for liver tissues.

interferon-β (IFN-β) = experiment: IFN-β production from human lung epithelial A549 cells; type: cell-based
phosphorylated IRF3 = experiment: Western blot for phosphorylated IRF3 in human lung epithelial A549 cells; type: cell-based; conditions: 500 nM, Western blotting
Method: Human lung epithelial A549 cells were incubated with either DMSO or SB 44 (500 nM). At indicated post-treatment time-points, the cell lysate was subjected to Western blotting with antibody specific for phosphorylated IRF3 (phospho-IRF3) (Cell signaling).

[5] = 14-day oral toxicity study in rats with two-week recovery; type: in vivo, Sprague-Dawley rats
Method: as §2

MHC-II = type: cell-based, mouse

COC1C(OP(=O)(OCC2OC(n3cnc4c(N)ncnc43)CC2O)SCOC(=O)OC(C)C)C(CO)OC1n1ccc(=O)[nH]c1=O (mixture of isomers) [SB 44]
CC50 [1]: > 1 mM
antigen specific CD8 / memory T cells in lungs of re-challenged mice (M. tuberculosis): boost the magnitude of antigen specific memory T cells; also recorded: induces a robust expansion of antigen specific CD8 T cells
protection against re-challenge of tuberculosis (M. tuberculosis): induce protection against re-challenge of tuberculosis in mice
recall response against re-challenge with tuberculosis (M. tuberculosis): retain the ability to mount a better recall response
IRF3 activation (IRF3-luciferase) [2]: induced IRF3 activation
CC50 (Vero): > 1 mM
induction of NF-kB activity via RIGI and Nod2 activation (NF-kB): induction of NF-kB activity; also recorded: induction of the transcription factor, NF-KB
induction of micronuclei [3]: not found to induce micronuclei
NOAEL ([4]; daily oral administration for 7 consecutive days): at least 1000 mg/kg/day
adverse effects ([4]; daily oral gavage 50, 250, 1000 mg/kg/day for 7 days): no overt biologically or toxicologically significant adverse effects
clinical observation after single dose ([4]; single dose 1000 mg/kg po, observed 3 days): appeared normal
production of IFN-β (interferon-β (IFN-β)): induces production of interferon-β
activated IRF3 (phospho-IRF3) detection (phosphorylated IRF3): detection of activated IRF3
no observed effect level (NOEL) ([5]; 14-day oral study): 50 mg/kg/day
overt toxicity ([5]; 50, 200, 500 mg/kg/day oral for 14 days): did not cause overt toxicity
thymus microscopic change ([5]; males and females at 200 and 500 mg/kg/day): Minimal to mild increases in thymic phagocytic macrophages
surface expression of MHC-II (MHC-II): increase MHC-II in MΦs; also recorded: enhances surface expression of MHC-II
